Values joined by “and” are separate entries in the source; they are usually repeats but may differ in a detail not shown here. Equal values may be shown once.

In assay [1] the test system is TNF-α secretion induced by LPS. As to the kind of experiment: TNF-α secretion model induced by LPS in SD rats. Type of assay: in vivo. The settings on record: 25 mpk oral gavage 0.5 h before 1 mg/kg LPS i.p., plasma 2 hours after modeling, p<0.01. On the procedure:
a) The pharmacokinetic effect of compound WX009 on TNF-α secretion model induced by LPS in SD rats.
Female SD rats were randomly divided into four groups according to the animal weight, namely Sham group, Model group and Dexamethasone (dosage: 0.5 mpk, DEX-0.5 mpk) group and tested drug WX009 (dosage: 25 mpk, WX009-25 mpk) group, with 6-9 animals in each group. The model was established by a single intraperitoneal injection of 1 mg/kg LPS. Dexamethasone and tested drug were given orally by gavage 0.5 h before modeling. After modeling for 2 hours, the animals were weighed, and all the experimental animals were anesthetized by intraperitoneal injection of pentobarbital sodium. An anticoagulant whole blood was collected through sublingual vein, anticoagulant: EDTA-K2, the plasma was separated, and the plasma volume was about 200 μL, which was used to detect the content of inflammatory factor, TNF-α.

Assay [2] deals with TMD-8 human diffuse large B lymphoma cells. The assay is described as follows: TMD-8 cell proliferation (Cell Titer Glo). Type of assay: cell-based. To be noted: TMD8, 72 hours. On the procedure:
The tumor cell lines OCI-LY10 and TMD-8 were used to detect the effect of the compound of the disclosure on inhibiting tumor cell proliferation in vitro.
TMD-8 human diffuse large B lymphoma cells, from Nanjing Cobioer Biotechnology Co., Ltd
The compound was diluted with DMSO to a final concentration of 10 mM. The compound was freshly prepared and ready for use.
a) Logarithmic growth period cells were collected, counted, resuspended with complete culture medium, the cell concentration was adjusted to an appropriate concentration (determined according to the results of cell density optimization test), inoculated on 96-well plates, and 100 μL of cell suspension was added to each well. Cells were incubated in an incubator with 37° C., 100% relative humidity and 5% CO2 for 24 hours.
b) The compound to be tested was diluted to 50 μM with culture medium and then gradient diluted for 8 times. Cells were added with 25 μL/well. The final concentrations of the compound were from […], 3-fold gradient dilution, with a total of 9 concentration points.
c) Cells were incubated in an incubator with 37° C., 100% relative humidity and 5% CO2 for 72 hours;
d) 60 μL of CTG test reagent was added to the culture medium.
e) Shaked fully and reacted in the dark for 10 min. Luminescence was measured on ENVISION and the inhibition rate was calculated.
Cell growth inhibition rate %=[(RLUv−RLUs)/(RLUv−RLUb)]×100%
In general terms: In ATP-based viability assays light output follows the ATP content of the culture.

Assay [3] has as its system human diffuse large B lymphoma TMD8 cell subcutaneous xenograft. As to the kind of experiment: TMD8 subcutaneous xenograft tumor model (WX009 study). Type of assay: in vivo, SCID mouse. To be noted: 18th day after administration. The text has this: The formula for calculating the tumor inhibition rate TGI (%)=[1−(average tumor volume at the end of administration in a treatment group-average tumor volume at the beginning of administration in the treatment group))/(average tumor volume at the end of treatment in solvent control group-average tumor volume at the beginning of treatment in solvent control group)]×100%.

Assay [4] has the same test system. As to the kind of experiment: TMD8 subcutaneous xenograft tumor model (WX017 and WX027 study). The settings on record: 11th day after administration.
Experimental: a) TMD8 cells were cultured in RPMI-1640 medium containing 10% FBS and maintained in a 37° C. saturated humidity incubator with 5% CO2. TMD8 cells in logarithmic period were collected, resuspended in RPMI-1640 basal medium, and Matrigel was added at 1:1, and the cell concentration was adjusted to 4×10^7/mL. Under aseptic conditions, 0.1 mL of cell suspension was inoculated under the skin of the right back of SCID mice, and the inoculation concentration was 4×10^6/0.1 mL/mouse.
When the tumor grew to a certain size, the animals with too large, too small or irregular tumor shape were excluded, and the animals with tumor volume of 108.76-188.11 mm^3 were selected. According to the tumor volume, the animals were divided into 10 groups by random block method, with 6 mice in each group, and the average tumor volume was about 152.11 mm^3. The health status and death of animals were monitored every day, and routine examinations included observing the effects of tumor growth and drug treatment on daily behaviors of animals, such as behavioral activities, food intake and water intake, weight change (weight was measured twice a week), tumor size (tumor volume was measured twice a week), appearance signs or other abnormal conditions.
The formula for calculating tumor volume (TV) was: 1/2×a×b^2, where a and b were the measured length and width of the tumor respectively. The formula for calculating the tumor inhibition rate TGI (%)=[1−(average tumor volume at the end of administration in a treatment group-average tumor volume at the beginning of administration in the treatment group))/(average tumor volume at the end of treatment in solvent control group-average tumor volume at the beginning of treatment in solvent control group)]×100%.
In this study, the experimental data were all expressed by Mean±SEM. Statistical analysis was based on the data of RTV at the end of the experiment and analyzed by IBM SPSS Statistics software. T test was used to analyze the comparison between two groups, and one-way ANOVA was used to analyze the comparison between three or more groups. If the variance was even (there was no significant difference in F value), Tukey's method was used to analyze it, and if the variance was uneven (there was significant difference in F value), Games-Howell method was used to test it. p<0.05 was deemed to a significant difference.

The IC50 is the concentration that inhibits the measured activity by half. The low end stands for inhibition by little substance, the high end for a need for much substance. For the compound `Cc1cc(-c2nc(C(=O)Nc3cn4cc(C(C)(C)O)nc4cc3-c3ccccc3)co2)ccn1` [WX009], the “TNF-α content in animal plasma compared with the Model group” value in assay [1] is on record as “significantly reduce”. In assay [2], inhibition was half-maximal at 37 nM (IC50). In addition, the TGI was 86% and 86.28% in assay [3] (5 mg/kg BID PO); 85.10% in assay [3] (10 mg/kg BID PO); 96.55% in assay [3] (20 mg/kg BID PO).
As for `CC(C)(O)c1cn2cc(NC(=O)c3coc(-c4ccnc(N)c4)n3)c(-c3ccccc3)cc2n1` [WX017], the IC50 in assay [2] stood at 10 nM. The TGI was determined as 86% in assay [4] (3 mg/kg BID PO), 100% in assay [4] (10 mg/kg BID PO) and 114% in assay [4] (20 mg/kg BID PO).
Consider `CC(C)(O)c1cn2cc(NC(=O)c3coc(-c4ccnc(N)c4F)n3)c(-c3ccccc3)cc2n1` [WX027], for which, in assay [2], half-maximal inhibition (IC50) was put at 32.2 nM. The figures for the TGI in assay [4] (3 mg/kg BID PO), in assay [4] (10 mg/kg BID PO) and in assay [4] (20 mg/kg BID PO) were 78%, 90% and 104%, respectively.
